The target in one assay is T1, p38 MAP Kinase a (Homo sapiens, UniProt Q16539).
T1 construct: purchased Upstate (Dundee UK)
Put plainly: p38 MAP Kinase activity, radiometric filter-binding assay (Upstate). Type of assay: biochemical. As to conditions: IC50 range; read-out: Inhibitor activity versus p38 MAPKa. The procedure: The ability of compounds to inhibit p38 MAP a Kinase activity was measured in an assay performed by Upstate (Dundee UK). In a final reaction volume of 25 μL, p38 MAP Kinase a (5-10 mU) is incubated with 25 mM Tris pH 7.5, 0.002 mMEGTA, 0.33 mg/mL myelin basic protein, 10 mM MgAcetate and [g-33P-ATP] (specific activity approx. 500 cpm/pmol, concentration as required). The reaction is initiated by the addition of the MgATP mix. After incubation for 40 minutes at room temperature, the reaction is stopped by the addition of 5 μL of a 3% phosphoric acid solution. 10 μL of the reaction is then spotted onto a P30 filtermat and washed three times for 5 minutes in 75 mM phosphoric acid and once in methanol prior to drying and scintillation counting.
Duplicate data points are generated from a 1/3 log dilution series of a stock solution in DMSO. Nine dilutions steps are made from a top concentration of 10 μM, and a ‘no compound’ blank is included. The standard radiometric filter-binding assay is performed at an ATP concentration at, or close to, the Km. Data from scintillation counts are collected and subjected to free-fit analysis by Prism software. From the curve generated, the concentration giving 50% inhibition is determined and reported.

In the next assay the test system is THP-1 TNFα release. Description: LPS-stimulation of THP-1 cells, TNF-α release by ELISA. The assay is classed as cell-based. The following applies: Homo sapiens, THP-1, 6 h; read-out: Inhibitor activity versus THP-1 TNFα release. On the procedure:
THP-1 cells were plated in 100 μl at a density of 4×10^4 cells/well in V-bottomed 96 well tissue culture treated plates and incubated at 37° C. in 5% CO2 for 16 hrs. 2 hrs after the addition of the inhibitor in 100 μl of tissue culture media, the cells were stimulated with LPS (E coli strain 005:B5, Sigma) at a final concentration of 1 μg/ml and incubated at 37° C. in 5% CO2 for 6 hrs. TNF-α levels were measured from cell-free supernatants by sandwich ELISA (R&D Systems #QTA00B).
For orientation: In an ELISA, binding on a coated surface is turned into a signal by an enzyme label.

Experimental findings from patent publication US20100267774A1, “P38 MAP KINASE INHIBITORS” (CHROMA THERAPEUTICS LTD., priority 2007, published 2010) are described below.

Where only a bound is given, the exact number is not on record here.

T1 sequence (Q16539 whole entry): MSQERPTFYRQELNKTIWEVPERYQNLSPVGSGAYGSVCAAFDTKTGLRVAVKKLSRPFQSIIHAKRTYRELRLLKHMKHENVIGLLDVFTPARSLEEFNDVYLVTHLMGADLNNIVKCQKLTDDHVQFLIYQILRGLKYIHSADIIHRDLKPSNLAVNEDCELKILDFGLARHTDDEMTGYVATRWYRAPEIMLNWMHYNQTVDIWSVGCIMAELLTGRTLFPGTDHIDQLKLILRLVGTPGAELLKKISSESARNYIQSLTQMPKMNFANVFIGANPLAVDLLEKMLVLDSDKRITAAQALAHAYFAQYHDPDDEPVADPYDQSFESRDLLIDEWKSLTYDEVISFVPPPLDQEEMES

In the case of `CC(C)C[C@H](NCCc1cc(F)c(-n2c(N)c(C(=O)c3ccc(F)cc3)ccc2=O)c(F)c1)C(=O)OC(C)(C)C` [Example 25, tert-butyl N-(2-{4-[6-amino-5-(4-fluorobenzoyl)-2-oxopyridin-1(2H)-yl]-3,5-difluorophenyl}ethyl)-L-leucinate], the IC50 on p38 MAP Kinase a was 100 to 1000 nM; with THP-1 TNFα release, < 100 nM.

For the compound `Nc1c(C(=O)c2ccc(F)cc2)ccc(=O)n1-c1c(F)cc(CCN[C@H](C(=O)OC2CCCC2)c2ccccc2)cc1F` [Example 26, Cyclopentyl (2S)-[(2-{-4-[6-amino-5-(4-fluorobenzoyl)-2-oxopyridin-1(2H)-yl]-3,5-difluorophenyl}ethyl)amino](phenyl)acetate], the IC50 at p38 MAP Kinase a was 100 to 1000 nM; in the assay with THP-1 TNFα release, < 100 nM.

Turning to `CC(C)(C)OC(=O)[C@@H](NCCc1cc(F)c(-n2c(N)c(C(=O)c3ccc(F)cc3)ccc2=O)c(F)c1)c1ccccc1` [Example 27, tert-butyl (2S)-[(2-{4-[6-amino-5-(4-fluorobenzoyl)-2-oxopyridin-1(2H)-yl]-3,5-difluorophenyl}ethyl)amino](phenyl)acetate], the IC50 at p38 MAP Kinase a was 100 to 1000 nM; in the assay on THP-1 TNFα release it was < 100 nM.

On to `Nc1c(C(=O)c2ccc(F)cc2)ccc(=O)n1-c1c(F)cc(CCN[C@H](C(=O)OC2CCCC2)C2CCCCC2)cc1F` [Example 28, Cyclopentyl (2S)-[(2-{4-[6-amino-5-(4-fluorobenzoyl)-2-oxopyridin-1(2H)-yl]-3,5-difluorophenyl}ethyl)amino](cyclohexyl)acetate], for which the IC50 at p38 MAP Kinase a and with THP-1 TNFα release was 100 to 1000 nM throughout.

As to `CC(C)C[C@@H](NCCc1cc(F)c(-n2c(N)c(C(=O)c3ccc(F)cc3)ccc2=O)c(F)c1)C(=O)OC1CCCC1` [Example 29, Cyclopentyl N-(2-{4-[6-amino-5-(4-fluorobenzoyl)-2-oxopyridin-1(2H)-yl]-3,5-difluorophenyl}ethyl)-D-leucinate], the IC50 on p38 MAP Kinase a is 100 to 1000 nM; in the assay with THP-1 TNFα release, < 100 nM.

Take `CC(C)C[C@@H](NCCc1cc(F)c(-n2c(N)c(C(=O)c3ccc(F)cc3)ccc2=O)c(F)c1)C(=O)OC(C)(C)C` [Example 30, tert-butyl N-(2-{4-[6-amino-5-(4-fluorobenzoyl)-2-oxopyridin-1(2H)-yl]-3,5-difluorophenyl}ethyl)-D-leucinate]: the IC50 at p38 MAP Kinase a and in the assay on THP-1 TNFα release was 100 to 1000 nM throughout.

As for `CC(C)(C)OC[C@H](NCCc1cc(F)c(-n2c(N)c(C(=O)c3ccc(F)cc3)ccc2=O)c(F)c1)C(=O)OC1CCCC1` [Example 31, Cyclopentyl N-(2-{4-[6-amino-5-(4-fluorobenzoyl)-2-oxopyridin-1(2H)-yl]-3,5-difluorophenyl}ethyl)-O-tert-butyl-L-serinate], the results for the IC50 on p38 MAP Kinase a and in the assay with THP-1 TNFα release were 100 to 1000 nM and < 100 nM, respectively.

As to `Nc1c(C(=O)c2ccc(F)cc2F)ccc(=O)n1-c1c(F)cc(CCN[C@H](C(=O)OC2CCCC2)c2ccccc2)cc1F` [Example 34, Cyclopentyl (2S)-[(2-{4-[6-amino-5-(2,4-difluorobenzoyl)-2-oxopyridin-1(2H)-yl]-3,5-difluorophenyl}ethyl)amino](phenyl)acetate], the IC50 on p38 MAP Kinase a and in the assay on THP-1 TNFα release was < 100 nM each time.

`Nc1c(C(=O)c2ccc(F)cc2F)ccc(=O)n1-c1c(F)cc(CCN[C@H](C(=O)OC2CCCC2)C2CCCCC2)cc1F` [Example 36, Cyclopentyl (2S)-[(2-{4-[6-amino-5-(2,4-difluorobenzoyl)-2-oxopyridin-1(2H)-yl]-3,5-difluorophenyl}ethyl)amino](cyclohexyl)acetate]: the values for the IC50 on p38 MAP Kinase a and in the assay on THP-1 TNFα release were 100 to 1000 nM and < 100 nM, respectively.

Regarding `CC(C)C[C@H](NCCc1cc(F)c(-n2c(N)c(C(=O)c3ccc(F)cc3F)ccc2=O)c(F)c1)C(=O)OC(C)(C)C` [Example 37, tert-butyl N-(2-{4-[6-amino-5-(2,4-difluorobenzoyl)-2-oxopyridin-1(2H)-yl]-3,5-difluorophenyl}ethyl)-L-leucinate], the IC50 on p38 MAP Kinase a is 100 to 1000 nM; in the assay with THP-1 TNFα release, < 100 nM.

As for `CC(C)C[C@@H](NCCc1cc(F)c(-n2c(N)c(C(=O)c3ccc(F)cc3F)ccc2=O)c(F)c1)C(=O)OC1CCCC1` [Example 38, Cyclopentyl N-(2-{4-[6-amino-5-(2,4-difluorobenzoyl)-2-oxopyridin-1(2H)-yl]-3,5-difluorophenyl}ethyl)-D-leucinate], the IC50 at p38 MAP Kinase a was 100 to 1000 nM; with THP-1 TNFα release it was < 100 nM.

For `CC(C)C[C@@H](NCCc1cc(F)c(-n2c(N)c(C(=O)c3ccc(F)cc3F)ccc2=O)c(F)c1)C(=O)OC(C)(C)C` [Example 39, tert-butyl N-(2-{4-[6-amino-5-(2,4-difluorobenzoyl)-2-oxopyridin-1(2H)-yl]-3,5-difluorophenyl}ethyl)-D-leucinate], the IC50 on p38 MAP Kinase a was 100 to 1000 nM; in the assay on THP-1 TNFα release it was < 100 nM.

`CC(C)(C)OC[C@H](NCCc1cc(F)c(-n2c(N)c(C(=O)c3ccc(F)cc3F)ccc2=O)c(F)c1)C(=O)OC1CCCC1` [Example 40, Cyclopentyl N-(2-{4-[6-amino-5-(2,4-difluorobenzoyl)-2-oxopyridin-1(2H)-yl]-3,5-difluorophenyl}ethyl)-O-tert-butyl-L-serinate]: the IC50 at p38 MAP Kinase a and in the assay on THP-1 TNFα release was < 100 nM throughout.

For the compound `CC(C)(C)OC[C@H](NCCc1cc(F)c(-n2c(N)c(C(=O)c3ccc(F)cc3F)ccc2=O)c(F)c1)C(=O)OC(C)(C)C` [Example 41, tert-butyl N-(2-{4-[6-amino-5-(2,4-difluorobenzoyl)-2-oxopyridin-1(2H)-yl]-3,5-difluorophenyl}ethyl)-O-tert-butyl-L-serinate], the IC50 on p38 MAP Kinase a and in the assay on THP-1 TNFα release was < 100 nM throughout.

As to `Nc1c(C(=O)c2ccc(F)cc2F)ccc(=O)n1-c1c(F)cc(CCN[C@@H](C(=O)OC2CCCC2)c2ccccc2)cc1F` [Example 42, Cyclopentyl (2R)-[(2-{4-[6-amino-5-(2,4-difluorobenzoyl)-2-oxopyridin-1(2H)-yl]-3,5-difluorophenyl}ethyl)amino](phenyl)acetate], the IC50 on p38 MAP Kinase a and with THP-1 TNFα release was < 100 nM in each case.

On to `CC(C)[C@H](NCCc1cc(F)c(-n2c(N)c(C(=O)c3ccc(F)cc3F)ccc2=O)c(F)c1)C(=O)OC1CCCC1` [Example 43, Cyclopentyl N-[2-(4-{6-amino-5-[(2,4-difluorophenyl)carbonyl]-2-oxopyridin-1(2H)-yl}-3,5 difluorophenyl)ethyl]-L-valinate], for which the IC50 on p38 MAP Kinase a and with THP-1 TNFα release was < 100 nM in each case.

On to `Nc1c(C(=O)c2ccc(F)cc2F)ccc(=O)n1-c1c(F)cc(CCN[C@H](C(=O)OC2CCCC2)c2ccc(O)cc2)cc1F` [Example 44, Cyclopentyl (2S)-{[2-(4-{6-amino-5-[(2,4-difluorophenyl)carbonyl]-2-oxopyridin-1(2H)-yl}-3,5-difluorophenyl)ethyl]amino}(4-hydroxyphenyl)ethanoate], for which the IC50 on p38 MAP Kinase a and with THP-1 TNFα release was < 100 nM throughout.

Turning to `C[C@@H](O)[C@H](NCCc1cc(F)c(-n2c(N)c(C(=O)c3ccc(F)cc3F)ccc2=O)c(F)c1)C(=O)OC1CCCC1` [Example 45, Cyclopentyl N-[2-(4-{6-amino-5-[(2,4-difluorophenyl)carbonyl]-2-oxopyridin-1(2H)-yl}-3,5-difluorophenyl)ethyl]-L-threoninate], the IC50 on p38 MAP Kinase a and in the assay on THP-1 TNFα release was < 100 nM in each case.
